Reference: patent US7220735B2, “Benzimidazolone histamine H3 antagonists” (Schering Corporation, priority 2002, dated 2007)

Target: T1, H3 receptors (Cavia porcellus, UniProt Q9JI35)
T1 construct: The source of the H3 receptors in this experiment was guinea pig brain; from tissue; host or cells: guinea pig brain membranes
Test: H3-Receptor Binding Assay (guinea pig brain membranes)
Conditions: 3 nM [3H]R-α-methyl histamine or 3 nM [3H]Nα-methyl histamine, 30° C., 30 min
Procedure: The source of the H3 receptors in this experiment was guinea pig brain. The animals weighed 400–600 g. The brain tissue was homogenized with a solution of 50 mM Tris, pH 7.5. The final concentration of tissue in the homogenization buffer was 10% w/v. […] The resulting supernatants were then centrifuged at 50,000×g for 20 min. in order to sediment the membranes, which were next washed three times in homogenization buffer (50,000×g for 20 min. each). The membranes were frozen and stored at −70° C. until needed.
All compounds to be tested were dissolved in DMSO and then diluted into the binding buffer (50 mM Tris, pH 7.5) such that the final concentration was 2 μg/ml with 0.1% DMSO. Membranes were then added (400 μg of protein) to the reaction tubes. The reaction was started by the addition of 3 nM [^3H]R-α-methyl histamine (8.8 Ci/mmol) or 3 nM [^3H]N^α-methyl histamine (80 Ci/mmol) and continued under incubation at 30° C. for 30 min. Bound ligand was separated from unbound ligand by filtration, and the amount of radioactive ligand bound to the membranes was quantitated by liquid scintillation spectrometry.

T1 sequence (Q9JI35 whole entry): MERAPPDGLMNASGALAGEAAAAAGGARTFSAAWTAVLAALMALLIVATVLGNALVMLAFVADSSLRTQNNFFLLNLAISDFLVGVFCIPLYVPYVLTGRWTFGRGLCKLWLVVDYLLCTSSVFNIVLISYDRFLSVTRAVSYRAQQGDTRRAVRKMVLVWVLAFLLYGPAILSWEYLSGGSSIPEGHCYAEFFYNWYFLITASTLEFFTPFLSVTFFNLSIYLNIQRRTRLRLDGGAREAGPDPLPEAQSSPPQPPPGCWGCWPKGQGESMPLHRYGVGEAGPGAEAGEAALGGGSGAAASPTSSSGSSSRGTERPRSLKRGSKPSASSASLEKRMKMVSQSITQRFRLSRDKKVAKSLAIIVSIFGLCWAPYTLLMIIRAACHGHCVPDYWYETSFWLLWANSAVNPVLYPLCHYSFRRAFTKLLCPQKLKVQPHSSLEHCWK

Ki: 0.2 nM
Structure (SMILES): O=C(C1CCN(Cc2ccncc2)CC1)N1CCC(n2c(=O)n(CCn3cccc3)c3ccccc32)CC1 [Example 1AL]
